Test results from publication PMC8805583, “Discovery of Herbacetin as a Novel SGK1 Inhibitor to Alleviate Myocardial Hypertrophy” (Advanced Science, 2021).

Tests used:
Assay in all cases: KinaseProfiler Assay, AGC kinase panel
Format in all cases: biochemical
[1] = target: T1, G protein-coupled receptor kinase 3 (GRK3) (Homo sapiens, UniProt P35626); conditions: HBT 10 µmol
T1 construct: purchased Eurofins Discovery (KinaseProfiler Service)
T1 sequence (P35626 1-688): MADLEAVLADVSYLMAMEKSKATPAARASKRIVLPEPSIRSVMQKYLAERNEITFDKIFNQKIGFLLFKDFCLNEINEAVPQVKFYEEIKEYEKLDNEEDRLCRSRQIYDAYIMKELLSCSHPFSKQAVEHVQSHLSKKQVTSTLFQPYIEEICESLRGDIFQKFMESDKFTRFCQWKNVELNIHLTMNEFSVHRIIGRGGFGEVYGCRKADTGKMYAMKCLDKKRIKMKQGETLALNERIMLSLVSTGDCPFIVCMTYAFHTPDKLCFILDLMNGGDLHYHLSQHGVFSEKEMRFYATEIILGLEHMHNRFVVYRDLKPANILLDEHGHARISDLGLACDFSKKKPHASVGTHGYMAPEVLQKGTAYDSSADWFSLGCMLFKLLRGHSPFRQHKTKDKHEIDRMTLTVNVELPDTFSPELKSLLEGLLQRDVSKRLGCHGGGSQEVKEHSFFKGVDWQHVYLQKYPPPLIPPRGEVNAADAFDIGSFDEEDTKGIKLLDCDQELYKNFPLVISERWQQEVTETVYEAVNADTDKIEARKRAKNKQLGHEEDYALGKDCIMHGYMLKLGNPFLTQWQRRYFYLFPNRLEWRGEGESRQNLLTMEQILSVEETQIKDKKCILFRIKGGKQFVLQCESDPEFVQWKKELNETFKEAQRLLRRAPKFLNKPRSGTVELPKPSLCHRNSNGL
From the text: (§1) 20 structurally related flavonoids of HBT were collected, which differ in the number and position of —OH groups, and examined for their effects on SGK1 activity. Based on the docking prediction, the —OH group at the C‐4’ position of HBT was required for the interaction with the key SGK1 residue D177. Therefore, the 20 flavonoids were divided into two classes according to the presence or absence of an —OH group at C‐4’ (Figure 4B). At both tested concentrations, flavonoids with an —OH group at C‐4’ (class A) inhibited SGK1 more than those without an —OH group at C‐4’ (class B) (Figure 4C). The IC50 of each compound is listed in Figure 4D; and Figure S6 (Supporting Information). […] Conversely, the absence of an ‐OH group at C‐8 led to a greater than 10‐fold reduction in flavonoid SGK1 inhibitory activity, as shown by the performance of A1 or A4. […] The inhibitory activity of HBT (10 µmol) against 28 human AGC kinases was tested by KinaseProfiler Assay (Eurofins Discovery). The percentage of HBT's inhibitory activity against each kinase was normalized by the respective positive inhibitors of AGC kinases.
(§2) The initial crystal structures of SGK1 (PDB entry: 3HDN, 3HDM, and 2R5T) were obtained from the Protein Data Bank (PDB). The prepared inhibitors were then docked by Glide with the extra precision (XP) scoring mode to estimate the binding affinity for each protein–ligand complex. The detailed process of docking has been described previously.^[ [46] ^] HEK293T cells were transfected with SGK1 mutant plasmids. After 24 h, cells were lysed and immunoprecipitated with anti‐FLAG antibody and beads. Immune complexes were washed with kinase buffer and incubated in kinase buffer with substrate peptide for 1 h at 30 ℃ followed by LC/MS measurement as described above. KINOMEscan Profiling Service and KinaseProfiler Service Assay were provided by Eurofins Discovery.

[2] = target: T2, Rho-associated protein kinas-1 (ROCK-I) (Homo sapiens, UniProt Q13464); conditions: HBT 10 µmol
T2 construct: purchased Eurofins Discovery (KinaseProfiler Service)
From the text: as §1, §2

SGK2 = target: T3, SGK2 (Homo sapiens, UniProt Q9HBY8); conditions: HBT 10 µmol; normalized by positive inhibitors
T3 construct: purchased Eurofins Discovery (KinaseProfiler Service)
T3 sequence (Q9HBY8 1-367): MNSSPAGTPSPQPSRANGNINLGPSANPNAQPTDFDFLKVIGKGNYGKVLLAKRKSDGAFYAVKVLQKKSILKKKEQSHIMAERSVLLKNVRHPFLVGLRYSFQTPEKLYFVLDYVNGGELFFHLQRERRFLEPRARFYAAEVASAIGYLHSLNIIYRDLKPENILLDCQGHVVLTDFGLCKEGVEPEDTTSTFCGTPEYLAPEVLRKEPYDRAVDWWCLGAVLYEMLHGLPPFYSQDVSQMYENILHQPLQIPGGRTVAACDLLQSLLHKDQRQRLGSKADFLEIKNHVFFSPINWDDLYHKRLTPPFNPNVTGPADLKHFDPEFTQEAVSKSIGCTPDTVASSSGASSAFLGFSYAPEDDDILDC
From the text: as §1, §2

SGK3 = target: T4, SGK3 (Homo sapiens, UniProt Q96BR1); conditions: HBT 10 µmol; normalized by positive inhibitors
T4 construct: purchased Eurofins Discovery (KinaseProfiler Service)
T4 sequence (Q96BR1 1-496): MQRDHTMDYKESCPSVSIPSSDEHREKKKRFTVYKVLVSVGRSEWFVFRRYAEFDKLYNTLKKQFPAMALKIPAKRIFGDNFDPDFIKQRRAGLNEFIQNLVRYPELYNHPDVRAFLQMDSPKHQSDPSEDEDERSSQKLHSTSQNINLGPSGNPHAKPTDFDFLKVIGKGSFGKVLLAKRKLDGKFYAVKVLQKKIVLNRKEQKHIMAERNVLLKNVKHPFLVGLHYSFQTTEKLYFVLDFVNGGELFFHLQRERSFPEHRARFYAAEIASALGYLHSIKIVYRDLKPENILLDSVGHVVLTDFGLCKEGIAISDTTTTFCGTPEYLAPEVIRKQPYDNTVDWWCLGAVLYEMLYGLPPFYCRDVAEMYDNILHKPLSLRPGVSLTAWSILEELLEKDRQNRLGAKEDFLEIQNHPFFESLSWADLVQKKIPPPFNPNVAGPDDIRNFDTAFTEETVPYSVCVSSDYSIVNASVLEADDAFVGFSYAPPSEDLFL
From the text: as §1, §2

T2 sequence (Q13464 whole entry): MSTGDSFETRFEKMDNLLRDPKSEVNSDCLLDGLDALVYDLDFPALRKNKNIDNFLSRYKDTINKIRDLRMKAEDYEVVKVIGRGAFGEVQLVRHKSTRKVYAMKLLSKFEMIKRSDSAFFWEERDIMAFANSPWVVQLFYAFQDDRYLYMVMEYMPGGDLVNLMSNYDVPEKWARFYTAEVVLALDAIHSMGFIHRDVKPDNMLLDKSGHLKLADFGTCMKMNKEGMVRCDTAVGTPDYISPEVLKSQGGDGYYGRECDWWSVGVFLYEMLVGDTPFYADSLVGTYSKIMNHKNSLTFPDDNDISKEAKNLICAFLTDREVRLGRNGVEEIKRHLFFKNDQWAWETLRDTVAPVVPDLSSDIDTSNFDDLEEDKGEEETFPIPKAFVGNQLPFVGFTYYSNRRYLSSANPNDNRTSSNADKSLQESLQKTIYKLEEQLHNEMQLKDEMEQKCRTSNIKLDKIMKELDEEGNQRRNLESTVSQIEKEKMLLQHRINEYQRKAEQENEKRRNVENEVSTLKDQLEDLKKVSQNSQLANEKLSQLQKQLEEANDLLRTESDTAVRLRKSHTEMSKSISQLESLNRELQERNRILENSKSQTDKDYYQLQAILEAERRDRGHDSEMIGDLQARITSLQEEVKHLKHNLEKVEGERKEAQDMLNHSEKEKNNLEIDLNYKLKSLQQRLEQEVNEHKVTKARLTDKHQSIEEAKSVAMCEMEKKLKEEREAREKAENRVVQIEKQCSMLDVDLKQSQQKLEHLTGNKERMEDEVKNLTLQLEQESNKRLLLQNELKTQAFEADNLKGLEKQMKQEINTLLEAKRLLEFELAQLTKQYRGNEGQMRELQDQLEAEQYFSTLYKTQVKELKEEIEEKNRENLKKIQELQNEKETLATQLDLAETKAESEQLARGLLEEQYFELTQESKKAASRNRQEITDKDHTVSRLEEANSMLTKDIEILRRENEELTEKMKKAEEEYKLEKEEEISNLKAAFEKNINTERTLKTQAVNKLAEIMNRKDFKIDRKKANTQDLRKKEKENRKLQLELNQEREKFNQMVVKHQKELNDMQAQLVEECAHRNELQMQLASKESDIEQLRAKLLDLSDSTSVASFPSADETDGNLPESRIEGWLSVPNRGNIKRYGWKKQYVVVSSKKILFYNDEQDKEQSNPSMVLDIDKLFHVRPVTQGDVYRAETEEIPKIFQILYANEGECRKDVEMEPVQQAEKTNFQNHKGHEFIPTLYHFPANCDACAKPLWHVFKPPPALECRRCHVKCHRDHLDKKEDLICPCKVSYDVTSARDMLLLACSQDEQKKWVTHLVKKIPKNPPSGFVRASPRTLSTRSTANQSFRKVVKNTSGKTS

Compound: O=c1c(O)c(-c2ccc(O)cc2)oc2c(O)c(O)cc(O)c12 [HBT, herbacetin]
- inhibitory effect on GRK3 [1]: high inhibitory effects
- inhibitory effect on ROCK-I [2]: high inhibitory effects
- inhibitory activity on SGK2 (SGK2): 105%
- inhibitory activity on SGK3 (SGK3): 77%
